“Also recorded” adds a separate entry of the source.
Columns and labels:
Type in all cases: cell-based
human PXR = molecular target: T1, human PXR (Homo sapiens, UniProt O75469); assay: Reporter assay in LS intestinal cells transfected with human PXR + reporter; conditions: 24 h incubation, dose-response, up to the maximum tested concentration, four cell passages
T1 sequence (O75469 1-434): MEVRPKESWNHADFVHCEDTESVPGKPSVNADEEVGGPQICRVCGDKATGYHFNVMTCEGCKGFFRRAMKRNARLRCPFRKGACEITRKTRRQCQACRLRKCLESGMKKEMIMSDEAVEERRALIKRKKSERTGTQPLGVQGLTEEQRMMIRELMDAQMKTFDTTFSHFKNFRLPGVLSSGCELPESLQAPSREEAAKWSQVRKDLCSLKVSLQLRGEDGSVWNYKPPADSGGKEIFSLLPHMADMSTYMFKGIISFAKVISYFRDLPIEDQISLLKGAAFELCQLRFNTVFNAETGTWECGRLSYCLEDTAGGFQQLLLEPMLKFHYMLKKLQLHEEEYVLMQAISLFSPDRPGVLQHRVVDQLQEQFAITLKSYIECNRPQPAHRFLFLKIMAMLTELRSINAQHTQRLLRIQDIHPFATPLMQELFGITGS
Protocol: Reporter assay was performed using LS intestinal cells transfected with human PXR + reporter. Incubation time was 24 h and a dose-response curve was plotted. Results were confirmed using four different cells passages.
Percent displacement of reporter from human PXR as a function of MDCA concentration was evaluated and the results are shown in FIG. 9.
A reporter assay was performed using LS intestinal cells transfected with human PXR + reporter. Incubation time was 24 h and a dose-response curve was plotted. Results were confirmed using four different cells passages.

human PXR (hPXR) = molecular target: T2, human PXR (hPXR) (Homo sapiens, UniProt O75469); assay: Luciferase reporter assay with human PXR (hPXR) plasmid; conditions: in vitro at 5 µM
T2 construct: expressed in transfected cells
T2 sequence (O75469 1-434): T1 sequence (O75469 1-434)
Description: (§1) Data are expressed as average of relative luciferase units among the technical triplicates ± S.E. Asterisks (*) represent statistically significant difference as compared to the vehicle group (one-way ANOVA followed by Duncan’s post hoc test, p < 0.05).
(§2) The prototypical mPXR ligand pregnenolone 16α-carbonitrile (PCN) was used as a positive control (FIG. 4B right panel). […] The prototypical hPXR ligand rifampicin (Rif) was used as a positive control (FIG. 4B left panel).

mouse PXR (mPXR) = molecular target: T3, mouse PXR (mPXR) (Mus musculus, UniProt O54915); assay: Luciferase reporter assay with mouse PXR (mPXR) plasmid; conditions: in vitro at 1 µM and 10 µM
T3 construct: expressed in transfected cells
T3 sequence (O54915 1-431): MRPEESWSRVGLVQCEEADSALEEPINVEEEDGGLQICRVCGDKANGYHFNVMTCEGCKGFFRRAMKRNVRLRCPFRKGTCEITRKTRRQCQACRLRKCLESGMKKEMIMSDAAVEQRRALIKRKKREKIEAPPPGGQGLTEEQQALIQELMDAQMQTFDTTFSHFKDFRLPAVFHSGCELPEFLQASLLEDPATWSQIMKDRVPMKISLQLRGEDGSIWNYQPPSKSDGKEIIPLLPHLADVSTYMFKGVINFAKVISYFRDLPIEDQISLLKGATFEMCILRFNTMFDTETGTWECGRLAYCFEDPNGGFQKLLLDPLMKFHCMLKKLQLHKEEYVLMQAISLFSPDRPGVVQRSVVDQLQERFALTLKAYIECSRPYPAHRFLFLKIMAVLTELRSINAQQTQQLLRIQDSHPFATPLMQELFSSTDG
Description: as §1, §2

Structure (SMILES) | binding affinity towards PXR (percent displacement of reporter from human PXR) (human PXR) | hPXR activation (relative luciferase units vs vehicle) (human PXR (hPXR)) | mPXR activation (relative luciferase units vs vehicle) (mouse PXR (mPXR)) | binding affinity towards PXR (percent displacement of reporter from human PXR) (human PXR; listed as MDCA)
C[C@H](CCC(=O)O)[C@H]1CC[C@H]2[C@@H]3[C@@H](O)[C@H](O)[C@@H]4C[C@H](O)CC[C@]4(C)[C@H]3CC[C@]12C [omega muricholic acid, ω-muricholic acid] | effective binding | weakly activated | activated | 
C[C@H](CCC(=O)O)[C@H]1CC[C@H]2[C@@H]3C[C@H](O)[C@@H]4C[C@H](O)CC[C@]4(C)[C@H]3CC[C@]12C [murideoxycholic acid] |  |  |  | no binding affinity; also recorded: totally inactive

From patent US20230128120A1, “OMEGA MURICHOLIC ACID AS A PREGNANE X RECEPTOR LIGAND FOR TREATING HEPATO-INTESTINAL DISEASES” (University of Washington, priority 2021, published 2023)
